Data on 72 molecules can be found in ChEMBL document CHEMBL3507680, “University of Dundee, Gates Library screen for HepG2 cell viability”.

SMILES strings stand for the structures.

The nature of this data set: Human HepG2 cell viability assay in 384 well format. The format is toxicity, cell-based. Details: dose 125 nL, time 70.5 hour; concentration not given beside the values. The conditions noted are these: HepG2 cells, read-out: Inhibition.
Regarding `Cc1ccc(N2CC[C@@H]3[C@@H]2CCN3C(=O)c2cscn2)nn1`, the cytotoxicity at 70.5 h was -4.17%.

In the case of `O=C1CN(CC[C@@H](O)c2ccccc2)CCN1c1ccccc1Cl`, the cytotoxicity at 70.5 h is -7.1%.

On to `CN(C)S(=O)(=O)N1CC[C@]2(C[C@@H](Oc3ncccc3F)CO2)C1`, for which the cytotoxicity at 70.5 h worked out at 13.4%.

As to `CC1CN(C(=O)CN(Cc2ccccc2)C2CC2)CCO1` (configuration not stated), the cytotoxicity at 70.5 h is -9.67%.

Take `CN(C)S(=O)(=O)N1CCC(c2nnc(C(F)(F)F)o2)CC1`: the cytotoxicity at 70.5 h stood at 30.8%.

As for `COCc1nc2cc(NCc3ccncc3)ccc2o1`, the cytotoxicity at 70.5 h was determined as 16.6%.

`CCOC(=O)C1CCCN(c2nccc(-n3nc(C)cc3C)n2)C1` (configuration not stated): the cytotoxicity at 70.5 h was -9.69%.

On to `N#CCCNC(=O)c1ccn(-c2ccc3ccccn23)n1`, for which the cytotoxicity at 70.5 h was -7.72%.

In the case of `COc1cccc(C(=O)N2CCN(C(=O)CCCc3cn[nH]c3)CC2)c1`, the cytotoxicity at 70.5 h is -2.77%.

With `c1ccc(NC[C@@H]2CCC[C@@H]3CN(Cc4cc[nH]n4)C[C@@H]32)nc1`, the cytotoxicity at 70.5 h was -12.4%.

For the molecule `O=C1NC[C@H]2CN(Cc3nccs3)CCN12`, the cytotoxicity at 70.5 h is -8.47%.

Consider `Cc1cc2n(n1)CC(CNCCNC(=O)c1ccc(F)cc1)CN2` (configuration not stated), for which the cytotoxicity at 70.5 h was -4.35%.

Take `Cc1noc(C2CCC3(CCN(C(=O)c4ccnnc4)CC3)O2)n1` (configuration not stated): the cytotoxicity at 70.5 h was -0.131%.

Turning to `O=C(NCCc1nnc2n1CCC2)N1CCC2(CCCCC2)C1`, the cytotoxicity at 70.5 h is -0.937%.

On to `CC(C)n1cc(CN2CCCN(C(=O)C3CCCN3C)CC2)cn1` (configuration not stated), for which the cytotoxicity at 70.5 h was -3.1%.

Turning to `CCc1nc(CNCC2CCCN2c2cccnn2)no1` (configuration not stated), the cytotoxicity at 70.5 h was -4.56%.

In the case of `COc1ncc(C(=O)NCc2ccc(Br)cc2)cn1`, the cytotoxicity at 70.5 h is -2.74%.

Regarding `Cn1cc(CN2CCc3ncnc(N4CCCC4)c3CC2)cn1`, the cytotoxicity at 70.5 h was -0.713%.

As for `Cc1cccc2[nH]c(COCC(=O)N3CCCn4cncc4C3)nc12`, the cytotoxicity at 70.5 h is -6.34%.

With `O=C(Nc1ccccn1)c1cncc(C2CCNCC2)n1`, the cytotoxicity at 70.5 h is -6.06%.

Take `c1ccc(-c2cc(CN3CCCC(Cn4cncn4)C3)on2)cc1` (configuration not stated): the cytotoxicity at 70.5 h was -1.24%.

As for `CCCc1nnc(NC(=O)NC(CCO)c2cccs2)s1` (configuration not stated), the cytotoxicity at 70.5 h is -3.88%.

On to `c1cncc(COCc2cncc3c2CCN(Cc2ccoc2)C3)c1`, for which the cytotoxicity at 70.5 h is -9.45%.

As for `Cc1nc(C)n(CC2CCCN(Cc3ccccc3C#N)C2)n1` (configuration not stated), the cytotoxicity at 70.5 h stood at 22.8%.

Turning to `O=C1CC(c2ccccc2Br)c2sc(N3CCOCC3)nc2N1` (configuration not stated), the cytotoxicity at 70.5 h came out at 2.49%.

As to `Cc1nc2c(Nc3ccc(C#N)cc3)nc(N)nc2n1C`, the cytotoxicity at 70.5 h is -1.73%.

In the case of `COc1ccc(CC(=O)NC2(C#N)CCOCC2)c(Cl)c1`, the cytotoxicity at 70.5 h amounted to 3.22%.

On to `Cc1cc(C)n(-c2ccc(NCCNS(=O)(=O)c3ccccc3)nn2)n1`, for which the cytotoxicity at 70.5 h is -5.4%.

As to `O=c1c2cccc(C(F)(F)F)c2ncn1CCN1CCNCC1`, the cytotoxicity at 70.5 h was -1.89%.

For `O=C1NC2(CCN(CCc3ccccc3)CC2)CC1c1ccccc1` (configuration not stated), the cytotoxicity at 70.5 h was -8.33%.

For the molecule `COCC(C)(CCO)NC(=O)Nc1cccc(F)c1C` (configuration not stated), the cytotoxicity at 70.5 h was 21.4%.

`CC(C)NS(=O)(=O)c1cc(C(=O)O)cc(-c2ccc3c(c2)OCO3)c1`: the cytotoxicity at 70.5 h was -9.21%.

As to `CN(CCc1cccs1)C(=O)Nc1ccc2c(c1)C(=O)N(C)CC2`, the cytotoxicity at 70.5 h is -7.01%.

Regarding `Cn1ccnc1-c1ccc(NCCC2COc3ccccc3O2)nn1` (configuration not stated), the cytotoxicity at 70.5 h was -4.08%.

Take `COC(=O)CNC(=O)c1sccc1N(C)S(=O)(=O)c1ccc(Cl)cc1`: the cytotoxicity at 70.5 h worked out at 2.69%.

Turning to `COC(=O)C1CCN(C(=O)Nc2cc(-n3cccc3)ccc2F)CC1`, the cytotoxicity at 70.5 h is -6.77%.

As to `CCNC(=O)NC(=O)CN1CCOC(c2cccc(Br)c2)C1` (configuration not stated), the cytotoxicity at 70.5 h is -8.56%.

Take `Cc1cn(CC(=O)NC2CCN(S(C)(=O)=O)CC2)c2ccccc12`: the cytotoxicity at 70.5 h is -4.04%.

Take `Cc1cc(C(=O)N2CCNC(=O)CC2)c(C)n1CC(F)(F)F`: the cytotoxicity at 70.5 h was determined as 23.5%.

Regarding `COc1ccc(F)c(-c2ncccc2NC(=O)C(C)C)c1`, the cytotoxicity at 70.5 h worked out at 6.17%.

Turning to `CCC(=O)Nc1cccc(OCC(=O)N(C)Cc2nc(C)c[nH]2)c1`, the cytotoxicity at 70.5 h was -4.8%.

Consider `CC(C)NC(=O)CN(C)C1CCN(c2cnc3ccccc3n2)CC1`, for which the cytotoxicity at 70.5 h amounted to 20.5%.

`Cc1ccc(S(=O)(=O)Cc2nsc(N(C)C)n2)c(C)c1`: the cytotoxicity at 70.5 h is -6.24%.

Consider `CN(Cc1noc2c1CCCC2)C(=O)CN1C(=O)CSc2ccccc21`, for which the cytotoxicity at 70.5 h amounted to 3.41%.

For `CCN(Cc1ccc(C#N)cc1F)C(=O)C(C)(C)C`, the cytotoxicity at 70.5 h was -0.767%.

Consider `Cc1nc(-c2ccsc2)ccc1C(=O)NCCN1CCOCC1`, for which the cytotoxicity at 70.5 h was found to be 0.983%.

For `CCc1nnc(CNC(=O)CCN2CCN(c3cccc(C)c3)CC2)s1`, the cytotoxicity at 70.5 h was -4.25%.

On to `CNc1ccc(CC2CCCN(C(=O)c3cnccn3)C2)nn1` (configuration not stated), for which the cytotoxicity at 70.5 h is -14.4%.

In the case of `O=C(NCCCn1nc2ccccn2c1=O)Nc1ccccc1Cl`, the cytotoxicity at 70.5 h came out at 0.153%.

For `Cc1noc(C)c1C(=O)NCC(C)N(C)C` (configuration not stated), the cytotoxicity at 70.5 h is 4.18%.

As to `CC(OCC1CC1)C(=O)Nc1cccc(C(=O)Nc2ccccn2)c1` (configuration not stated), the cytotoxicity at 70.5 h was -8.38%.

For `CNC(=O)[C@H]1C[C@@H]2CN(Cc3cccnc3OC)C[C@@H]2N1C(C)=O`, the cytotoxicity at 70.5 h was -9.57%.

In the case of `c1ccc2nc(N3CCCCC3)c(NCc3nnc4n3CCC4)nc2c1`, the cytotoxicity at 70.5 h is -8.39%.

`Cc1cnn(CC2CCCN2C(=O)c2cccc(-n3cnnn3)c2)c1` (configuration not stated): the cytotoxicity at 70.5 h was -28.5%.

As to `Cc1csc(NC(=O)C2(C)CN(C)CCO2)n1` (configuration not stated), the cytotoxicity at 70.5 h is 1.56%.

Take `CCc1nc(CN(C)C2CCN(Cc3nnc(C4CCC4)o3)C2)no1` (configuration not stated): the cytotoxicity at 70.5 h was -0.232%.

Consider `COCC(NC(=O)NCc1sccc1C)c1ccco1` (configuration not stated), for which the cytotoxicity at 70.5 h was found to be 1.36%.

As for `Cn1c(CCC(=O)N2CCCC3(CC2)CNC(=O)O3)nc2cccnc21` (configuration not stated), the cytotoxicity at 70.5 h is 44%.

With `c1ccc(CN2CCc3ncnc(-c4ccoc4)c3CC2)nc1`, the cytotoxicity at 70.5 h was -5.45%.

Regarding `O=C(c1ccccn1)N1CCN(c2cnnc(N3CCCC3)c2)CC1`, the cytotoxicity at 70.5 h was -10.9%.

`CN(CCc1nc(-c2cccc(Cl)c2)no1)CCn1cccn1`: the cytotoxicity at 70.5 h is -5.46%.

As for `Cc1cncc(C(=O)NCCSCc2cccs2)c1`, the cytotoxicity at 70.5 h is -3.14%.

As for `COC1COC2(CCN(Cc3ccccc3F)CC2)C1` (configuration not stated), the cytotoxicity at 70.5 h was -8.4%.

`O=S(=O)(NCCCN1CC=CC1)c1cncc(Cl)c1`: the cytotoxicity at 70.5 h came to 29.6%.

For `NC(=O)c1ccc(CNCC2CCN(CCO)CC2)cc1`, the cytotoxicity at 70.5 h is -5.52%.

On to `COc1cccc2c1OCC(CNC(=O)CSc1nc(N)n[nH]1)C2` (configuration not stated), for which the cytotoxicity at 70.5 h was -12%.

As for `Cc1cc(C(=O)N2CCc3ncnc(N4CCSCC4)c3CC2)[nH]n1`, the cytotoxicity at 70.5 h is -5.82%.

With `CN(C)S(=O)(=O)c1ccc(OCCNCCn2cccn2)cc1`, the cytotoxicity at 70.5 h amounted to 33.7%.

Consider `CN1CCN([C@H]2CCN(C(=O)c3nn(C)cc3Cl)C[C@H]2CCCO)CC1`, for which the cytotoxicity at 70.5 h was -10.4%.

As to `COc1ccnc(N2CCC(=O)N(CC3CC3)C(C(C)C)C2)n1` (configuration not stated), the cytotoxicity at 70.5 h came out at 32.2%.

Consider `COCc1cccc(NS(=O)(=O)c2cc(C(=O)O)cs2)c1`, for which the cytotoxicity at 70.5 h is -12.7%.

Consider `CN(Cc1ccccc1)C(=O)Cn1nc(N2CCOCC2)ccc1=O`, for which the cytotoxicity at 70.5 h amounted to 9.2%.
